One block for each compound: values may come before it.
Test system: Secretion of ApoB
Assay: Quantification of the secretion of ApoB in HepG2 cells
Type: cell-based
Conditions: Homo sapiens, HepG2, 24 h, 24 hours of incubation with test compound, immunoprecipitation of apoB from medium, read-out: pIC50 value (=-log IC50 value), secretion of ApoB (converted)
Method in brief: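 At 70% confluency, HepG2 cells in MEM with 10% FCS received compound or DMSO carrier (0.4% final) for 24 h. Secreted apoB in cleared medium immunoprecipitated with sheep anti-apoB then rabbit anti-sheep antibody (24 h each, 8° C); pellet radioactivity counted by liquid scintillation; IC50 expressed as pIC50.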

Compound: COC(=O)c1ccc(NC(=O)C(c2ccccc2)N2CCC(c3ccc(-n4cnn(C(C)C)c4=O)cc3)CC2)cc1C (stereo not drawn) [Compound 285]
IC50: < 31.6 nM

Compound: COC(=O)c1ccc(CNC(=O)C(c2ccccc2)N2CCN(c3ccc(-n4ccn(C(C)C)c4=O)c(C)c3)CC2)cc1C (stereo not drawn) [Compound 286]
IC50: 31.6 to 316 nM

Compound: COC(=O)c1ccc(CNC(=O)C(c2ccccc2)N2CCN(c3ccc(-n4cnn(C(C)c5ccccc5)c4=O)cc3)CC2)cc1C (stereo not drawn) [Compound 287]
IC50: 316 to 3160 nM

Compound: COC(=O)c1ccc(CNC(=O)C(c2ccccc2)N2CCC(c3ccc(-n4cnn(C(C)C)c4=O)cc3)CC2)cc1C (stereo not drawn) [Compound 288]
IC50: 31.6 to 316 nM

Compound: COC(=O)c1ccccc1CNC(=O)C(c1ccccc1)N1CCN(c2ccc(-n3ccn(C(C)C)c3=O)c(C)c2)CC1 (stereo not drawn) [Compound 289]
IC50: 31.6 to 316 nM

Compound: COC(=O)c1cccc(CNC(=O)C(c2ccccc2)N2CCN(c3ccc(-n4ccn(C(C)C)c4=O)c(C)c3)CC2)c1 (stereo not drawn) [Compound 290]
IC50: 316 to 3160 nM

Compound: COC(=O)c1cccc(CNC(=O)C(c2ccccc2)N2CCN(c3ccc(-n4ccn(C(C)c5ccccc5)c4=O)cc3)CC2)c1 (stereo not drawn) [Compound 291]
IC50: 316 to 3160 nM

Compound: COC(=O)c1ccc(CNC(=O)C(c2ccccc2)N2CCN(c3ccc(-n4ccn(C(C)C)c4=O)c(C)c3)CC2)cc1 (stereo not drawn) [Compound 293]
IC50: 316 to 3160 nM

Compound: COC(=O)c1ccc(CNC(=O)C(c2ccccc2)N2CCN(c3ccc(-n4cnn(C(C)c5ccccc5)c4=O)cc3)CC2)cc1 (stereo not drawn) [Compound 294]
IC50: 316 to 3160 nM

Compound: COC(=O)c1ccc(CNC(=O)C(c2ccccc2)N2CCC(c3ccc(-n4cnn(C(C)C)c4=O)cc3)CC2)cc1 (stereo not drawn) [Compound 295]
IC50: 31.6 to 316 nM

Compound: CCOC(=O)C(c1ccccc1)N1CCC(c2ccc(-n3ccn([C@H](C)C4CCCCC4)c3=O)cc2)CC1 (stereo partly drawn) [Compound 296]
IC50: 31.6 to 316 nM

Compound: CCOC(=O)C(c1ccccc1)N1CCN(c2ccc(-n3ccn([C@H](C)c4ccccc4)c3=O)c(C)c2)CC1 (stereo partly drawn) [Compound 297]
IC50: 31.6 to 316 nM

Compound: CC(C)n1ncn(-c2ccc(N3CCN(C(C(=O)Nc4ccc5c(c4)CCN(C(=O)OC(C)(C)C)C5)c4ccccc4)CC3)cc2)c1=O (stereo not drawn) [Compound 305]
IC50: 31.6 to 316 nM

Compound: CC(C)n1ncn(-c2ccc(N3CCN(C(C(=O)Nc4ccc5c(c4)CC(NC(=O)OC(C)(C)C)C5)c4ccccc4)CC3)cc2)c1=O (stereo not drawn) [Compound 306]
IC50: < 31.6 nM

Compound: COC(=O)C(c1ccc(Br)cc1)N1CCC(c2ccc(-n3cnn(C(C)C)c3=O)cc2)CC1 (stereo not drawn) [Compound 323]
IC50: 316 to 3160 nM

Compound: COC(=O)C(c1ccc(C)cc1)N1CCC(c2ccc(-n3cnn(C(C)C)c3=O)cc2)CC1 (stereo not drawn) [Compound 324]
IC50: 316 to 3160 nM

More lines, now with the values ahead:

IC50: 316 to 3160 nM
Compound: COC(=O)C(c1ccc(C)cc1)N1CCN(c2ccc(-n3cnn(C(C)c4ccccc4)c3=O)cc2)CC1 (stereo not drawn) [Compound 318]

IC50: 31.6 to 316 nM
Compound: COC(=O)C(c1ccccc1Cl)N1CCC(c2ccc(-n3cnn(C(C)C)c3=O)cc2)CC1 (stereo not drawn) [Compound 319]

IC50: 316 to 3160 nM
Compound: COC(=O)C(c1cccc(Cl)c1)N1CCC(c2ccc(-n3cnn(C(C)C)c3=O)cc2)CC1 (stereo not drawn) [Compound 320]

IC50: 316 to 3160 nM
Compound: COC(=O)C(c1ccc(Cl)cc1)N1CCC(c2ccc(-n3cnn(C(C)C)c3=O)cc2)CC1 (stereo not drawn) [Compound 321]

IC50: 31.6 to 316 nM
Compound: COC(=O)C(c1ccc(Cl)cc1Cl)N1CCC(c2ccc(-n3cnn(C(C)C)c3=O)cc2)CC1 (stereo not drawn) [Compound 322]

IC50: 31.6 to 316 nM
Compound: COC(=O)C(c1ccccc1Cl)N1CCN(c2ccc(-n3cnn(C(C)C)c3=O)cc2)CC1 (stereo not drawn) [Compound 325]

IC50: 316 to 3160 nM
Compound: COC(=O)C(c1cccc(Cl)c1)N1CCN(c2ccc(-n3cnn(C(C)C)c3=O)cc2)CC1 (stereo not drawn) [Compound 326]

IC50: 316 to 3160 nM
Compound: COC(=O)C(c1ccc(Cl)cc1)N1CCN(c2ccc(-n3cnn(C(C)C)c3=O)cc2)CC1 (stereo not drawn) [Compound 327]

IC50: 31.6 to 316 nM
Compound: COC(=O)C(c1ccc(Cl)cc1Cl)N1CCN(c2ccc(-n3cnn(C(C)C)c3=O)cc2)CC1 (stereo not drawn) [Compound 328]

IC50: 316 to 3160 nM
Compound: COC(=O)C(c1ccc(Br)cc1)N1CCN(c2ccc(-n3cnn(C(C)C)c3=O)cc2)CC1 (stereo not drawn) [Compound 329]

IC50: 316 to 3160 nM
Compound: COC(=O)C(c1ccc(C)cc1)N1CCN(c2ccc(-n3cnn(C(C)C)c3=O)cc2)CC1 (stereo not drawn) [Compound 330]

From patent US7504400B2, “MTP inhibiting aryl piperydines or piperazines substituted with 5-membered heterocycles” (Janssen Pharmaceutica N.V., priority 2004, dated 2009)
